Results: the supplement of paper PMC10307832

Tests used:
Assay in all cases: relative viability (nuclei count vs DMSO), 5 days (fraction); higher = more cells survive
[1] = compound: C/C(=N\NC(=S)N1CCC1)/C2=CC=CC=N2 + O=C(c1cc(Cc2n[nH]c(=O)c3ccccc23)ccc1F)N1CCN(C(=O)C2CC2)CC1 [Olaparib] (partner 8 µM)
How it was run: (§1)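 Cells from lung cancer lines were seeded into 1536-well plates and, one day later, dosed by pin tool. Treatments were either a single drug or a fixed dose of an anchor drug with five library-drug doses (not always all listed) in √10 steps. After 5 days, nuclei were stained in a one-step fixation (final 0.05% Triton X-100, 1% formaldehyde, 1 ug/ml Hoechst) and counted on 4× images, and relative viability is the treated-to-vehicle nuclei ratio, as the median of duplicate plates.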

[2] = compound: C/C(=N\NC(=S)N1CCC1)/C2=CC=CC=N2 + CC(=O)c1c(C)c2cnc(Nc3ccc(N4CCNCC4)cn3)nc2n(C2CCCC2)c1=O [Palbociclib] (partner 0.5 µM)
How it was run: as §1

[3] = compound: C/C(=N\NC(=S)N1CCC1)/C2=CC=CC=N2 + Nc1nc2[nH]cc(CCc3ccc(C(=O)N[C@@H](CCC(=O)O)C(=O)O)cc3)c2c(=O)[nH]1 [Pemetrexed] (partner 0.2 µM)
How it was run: as §1

[4] = compound: C/C(=N\NC(=S)N1CCC1)/C2=CC=CC=N2 + Cc1nc(NC(=O)N2CCC[C@H]2C(N)=O)sc1-c1ccnc(C(C)(C)C(F)(F)F)c1 [Alpelisib] (partner 2 µM)
How it was run: as §1

Cell Line	relative viability ([1]; first compound 0.05 µM)	relative viability ([1]; first compound 0.1581 µM)	relative viability ([1]; first compound 0.5 µM)	relative viability ([1]; first compound 1.581 µM)	relative viability ([1]; first compound 5 µM)	relative viability ([2]; first compound 0.05 µM)	relative viability ([2]; first compound 0.1581 µM)	relative viability ([2]; first compound 0.5 µM)	relative viability ([2]; first compound 1.581 µM)	relative viability ([2]; first compound 5 µM)	relative viability ([3]; first compound 0.05 µM)	relative viability ([3]; first compound 0.1581 µM)	relative viability ([3]; first compound 0.5 µM)	relative viability ([3]; first compound 1.581 µM)	relative viability ([3]; first compound 5 µM)	relative viability ([4]; first compound 0.05 µM)	relative viability ([4]; first compound 0.1581 µM)	relative viability ([4]; first compound 0.5 µM)	relative viability ([4]; first compound 1.581 µM)	relative viability ([4]; first compound 5 µM)
ChaGo-K-1	0.137	0.247	0.126	0.138	0.135	0.144	0.408	0.144	0.132	0.148	0.172	0.171	0.18	0.161	0.162					
EKVX	0.149	0.115	0.121	0.16	0.167	0.13	0.149	0.109	0.141	0.158	0.148	0.163	0.0961	0.166	0.175	0.119	0.124	0.111	0.13	0.151
EMC-BAC-2	0.188	0.22	0.195	0.164	0.203	0.274	0.324	0.261	0.223	0.253	0.26	0.255	0.275	0.228	0.259	0.288	0.426	0.122	0.163	0.152
EPLC-272H	0.114	0.13	0.0724	0.0602	0.131	0.117	0.138	0.155	0.056	0.0855	0.165	0.179	0.149	0.0756	0.265	0.125	0.293	0.185	0.166	0.203
H3255	0.353	0.321	0.292	0.235	0.254	0.259	0.278	0.304	0.259	0.266	0.359	0.349	0.355	0.268	0.255	0.242	0.323	0.221	0.181	0.214
HARA	0.433	0.192	0.13	0.119	0.13	0.188	0.133	0.233	0.139	0.164	0.218	0.174	0.212	0.141	0.165	0.31	0.0915	0.122	0.145	0.0798
HCC-15	0.299	0.259	0.103	0.102	0.101	0.184	0.268	0.114	0.0996	0.091	0.198	0.11	0.13	0.113	0.093	0.191	0.453	0.0722	0.0749	0.0746
HCC-44	0.863	0.918	0.541	0.517	0.446	0.976	0.886	0.563	0.556	0.451	0.599	0.52	0.549	0.547	0.424	0.473	0.143	0.178	0.162	0.218
